# Assay results as given in patent US20230381774A1, “MICROFLUDIC LAB-ON-CHIP DEVICE, MATRIX, SMALL MOLECULES AND THREE-DIMENSIONAL SPHEROIDS FOR CELL REPROGRAMMING” (The Regents of the University of California, priority 2022, published 2023).
# Experiments:
# Assay type in all cases: cell-based, mouse
# H3K27me3 = test: Western blotting of H3K27me3
# Experimental: Equal amounts of total protein (50 μg) from each sample were separated in a 10% SDS-PAGE gel and transferred to a PVDF membrane at 120 V for 2 hours at room temperature. The blot was blocked with 5% nonfat dry milk suspended in 1×TBS (25 mM Tris, 137 mM NaCl, and 2.7 mM KCl) for 1 hour. Membranes were incubated sequentially with primary antibodies and secondary antibodies. Bands were scanned using a densitometer (Bio-Rad) and quantified using the Quantity One 4.6.3 software (Bio-Rad).
# [1] = test system: BAM-transduced fibroblasts; test: iN reprogramming on PAAm gels of varying stiffness; conditions: pre-treated for 24 hours before adding Dox
# Excerpt: To determine the role of matrix stiffness on iN reprogramming, adult mouse fibroblasts were transduced with doxycycline-inducible lentiviruses containing the three reprogramming factors Ascl1, Brn2 and Myt1l (BAM), and then seeded onto polyacrylamide (PAAm) gels of various stiffness (40 kPa, 20 kPa, and 1 kPa) coated with fibronectin. Glass coverslips coated with the same ECM protein were used as a rigid glass surface control (FIG. 15a). As shown in FIG. 15b-c, both the cell area and nuclear volume of fibroblasts decreased as the stiffness of the PAAm gel decreased. […] After 7 days, cultures were fixed and immunostained for neuronal marker, neuron-specific class III β-tubulin (Tubb3) in order to identify iN cells and determine the reprogramming efficiency (FIG. 15a). […] To determine whether matrix stiffness could modulate the activation of endogenous Ascl1, fibroblasts were transduced with an Ascl1 promoter driven-GFP construct and reprogrammed for 2 days.
# [2] = test system: histone acetyltransferase (HAT); test: HAT activity in fibroblasts on PAAm gels of varying stiffness; conditions: glass and gels of various stiffness, inhibitor for 24 hours
# Excerpt: FIG. 16. Matrix stiffness modulates histone acetyltransferase (HAT) activity and histone acetylation. (a) Immunofluorescent images of AcH3 in non-transduced fibroblasts cultured on glass and PAAm gels of various stiffness for 2 days. Scale bar, 10 μm. (b) Quantification of AcH3 intensity in cells cultured on glass and PAAm gels of various stiffness (based on experiments in a) (n>40). […] (e) Volcano plot showing differential accessible regions. Red dots indicate regions with increased chromatin accessibility and blue dots regions with decreased accessibility. (f) Heatmap representation of differentially accessible regions that overlap with Ascl1 ChIP-seq peaks (GSE43916: SRX323557). Each row represents a differential region; each column is one biological replicate of the indicated condition. (g) Quantification of HAT activity in fibroblasts cultured on glass and PAAm gels of various stiffness for 2 days, as determined using the Epigenase HAT activity kit (n=6). (h) Quantification of HAT activity in fibroblasts cultured on glass and PA gels of various stiffness for 1 day followed by treatment with vehicle control (DMSO) or a HAT inhibitor (anacardic acid, AA) for 24 hours (n=4). […] In b-i, statistical significance was determined by a one-way ANOVA and Tukey's multiple comparison test (N.S.: Not significant., *p<0.05, **p<0.01, ***p<0.001). […]
Structure (SMILES),H3K27me3 level (H3K27me3),stiffness-dependent reprogramming efficiency under HAT inhibitor [1],stiffness-dependent HAT activity under HAT inhibitor [2]
CS(=O)(=O)c1ccc(-c2cnc(NCc3ccco3)n3cnnc23)cc1 [EED226],inhibited,–,–
CCCCCCCCCCCCCCCc1cccc(O)c1C(=O)O [anacardic acid],–,inhibited the biphasic enhancement of HAT activity and the reprogramming efficiency,inhibited the biphasic enhancement of HAT activity and the reprogramming efficiency
